A word on the GI50: it is the concentration that inhibits growth by half.

Among the test systems are RPMI-8226; BT-549; MDA-MB-435; SF-295; CCRF-CEM; Hs-578T; A549; LOX IMVI; SK-MEL-5; CAKI-1; EKVX; SF-268; COLO 205; 786-0; SF-539; OVCAR-5; SNB-19; NCI-H522; OVCAR-3; OVCAR-4.
Holding throughout (experiment): DTP human tumour cell line panel, 48 h

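Assay format: 96-well plates, 48-hour exposure. The concentration for 50% growth inhibition is given as GI50.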 The source made the active and inactive calls. Cut-off read from the data, not from the text of the source: active = GI50 up to about 1.1 µM and inactive = higher.

For `Cc1cccc(C[C@@]2(SCc3ccccc3)C(C)(C)[C@@H]3CC[C@@]2(C)C3)n1`, the GI50 is 11.8 µM (inactive) in the assay with RPMI-8226; 20 µM (inactive) in the assay with BT-549; 24 µM (inactive) with MDA-MB-435; 14 µM (inactive) in the assay on SF-295; 12.9 µM (inactive) with CCRF-CEM; 19.7 µM (inactive) with Hs-578T. In addition, the GI50 was 21.9 µM (inactive) with A549; 16.6 µM (inactive) in the assay with LOX IMVI; 15.9 µM (inactive) in the assay on SK-MEL-5; 16.7 µM (inactive) in the assay on CAKI-1; 17.6 µM (inactive) in the assay with EKVX; 16.1 µM (inactive) in the assay on SF-268. The GI50 in the assay with COLO 205 is 15.6 µM (inactive); in the assay on 786-0, 17.6 µM (inactive); in the assay on SF-539, 23.3 µM (inactive); with OVCAR-5, 18 µM (inactive); in the assay with SNB-19, 16.3 µM (inactive); in the assay with NCI-H522, 14.3 µM (inactive). Further, the GI50 in the assay on OVCAR-3 was 15.6 µM (inactive).

For `O=[N+]([O-])/C(Cl)=C/C(=C1/Nc2ccccc2O1)[N+](=O)[O-]`, the GI50 in the assay on OVCAR-4 was 29 µM (inactive); in the assay on RPMI-8226 it was 28.5 µM (inactive); in the assay with BT-549, 16.3 µM (inactive); in the assay with MDA-MB-435, 15.9 µM (inactive); in the assay with SF-295, 26.7 µM (inactive); with CCRF-CEM, 13.3 µM (inactive). Also, the GI50 with Hs-578T was 27.2 µM (inactive); in the assay with A549 it was 34.8 µM (inactive); in the assay on LOX IMVI, 8.13 µM (inactive); in the assay on SK-MEL-5, 22.2 µM (inactive); in the assay with CAKI-1, 21.4 µM (inactive); in the assay on EKVX it was 18.8 µM (inactive). The GI50 in the assay on SF-268 is 16.3 µM (inactive); with COLO 205, 21.2 µM (inactive); in the assay on 786-0, 31.8 µM (inactive); in the assay on SF-539, 15.5 µM (inactive); in the assay on SNB-19, 17.4 µM (inactive); in the assay with NCI-H522, 13.5 µM (inactive). Moreover, the GI50 with OVCAR-3 was 19.3 µM (inactive).

`Clc1ccc(OCc2nnc(CCCCCCCCc3nnc(COc4ccc(Cl)cc4Cl)n3Nc3ccccc3)n2Nc2ccccc2)c(Cl)c1`: the GI50 was 8.51 µM (inactive) with OVCAR-4; 2.34 µM (inactive) in the assay with RPMI-8226; 17.9 µM (inactive) in the assay on BT-549; 5.97 µM (inactive) in the assay with MDA-MB-435; 1.38 µM (inactive) in the assay with SF-295; 15.8 µM (inactive) with Hs-578T. Also, the GI50 in the assay on A549 is 8.77 µM (inactive); with LOX IMVI it was 19 µM (inactive); in the assay on SK-MEL-5 it was 2.23 µM (inactive); in the assay with CAKI-1, 8.73 µM (inactive); with EKVX, 19 µM (inactive); in the assay with SF-268, 14.2 µM (inactive). Also, the GI50 in the assay on COLO 205 is 1.5 µM (inactive); in the assay on 786-0 it was 15.2 µM (inactive); in the assay with SF-539 it was 11.4 µM (inactive); with OVCAR-5, 9.23 µM (inactive); with SNB-19 it was 17.7 µM (inactive); in the assay with NCI-H522, 8.75 µM (inactive). The GI50 with OVCAR-3 was 12 µM (inactive).

Take `CCCCCN1C(=O)C(Cc2ccccc2)N=C(c2ccc(O)cc2)c2cc(Cl)ccc21` (stereo not drawn): the GI50 with OVCAR-4 was 7.73 µM (inactive); with RPMI-8226, 2.9 µM (inactive); in the assay on BT-549, 17.4 µM (inactive); in the assay on MDA-MB-435 it was 9.53 µM (inactive); in the assay on SF-295, 6.93 µM (inactive); in the assay on CCRF-CEM, 12.2 µM (inactive). The GI50 was 7.53 µM (inactive) in the assay on Hs-578T; 13.6 µM (inactive) in the assay with A549; 6.56 µM (inactive) with LOX IMVI; 13.8 µM (inactive) in the assay on CAKI-1; 8.41 µM (inactive) in the assay with EKVX; 8.73 µM (inactive) in the assay on SF-268. Further, the GI50 in the assay with COLO 205 is 2.96 µM (inactive); in the assay on 786-0, 13.6 µM (inactive); in the assay with SF-539 it was 22.2 µM (inactive); with OVCAR-5, 22.3 µM (inactive); with SNB-19, 14.5 µM (inactive); in the assay on NCI-H522, 2.55 µM (inactive). Also, the GI50 with OVCAR-3 was 17.3 µM (inactive).

As to `Cc1nn(C(=O)Cc2ccccc2)c2c1C(c1ccc(/C=C/c3ccccc3)cc1)SC(=N)N2` (stereo not drawn), the GI50 in the assay with RPMI-8226, in the assay on BT-549, with MDA-MB-435, in the assay on SF-295, in the assay with CCRF-CEM and in the assay on Hs-578T was > 100 µM (inactive) in each case. Also, the GI50 with A549, in the assay with LOX IMVI, in the assay with SK-MEL-5, with CAKI-1, in the assay with EKVX and in the assay with SF-268 was > 100 µM (inactive) throughout. Besides, the GI50 with COLO 205, with 786-0, in the assay on SF-539, in the assay with SNB-19 and in the assay with NCI-H522 was > 100 µM (inactive) throughout.

Turning to `O=C(CSCC(=O)N/N=C/c1ccc2c(c1)OCO2)N/N=C/c1ccc2c(c1)OCO2`, the GI50 in the assay on OVCAR-4 is > 100 µM (inactive); in the assay on RPMI-8226 it was 49.3 µM (inactive); in the assay on BT-549 it was > 100 µM (inactive); in the assay with MDA-MB-435 it was 38.3 µM (inactive); in the assay on SF-295, 44.6 µM (inactive); in the assay with CCRF-CEM, 82.2 µM (inactive). The GI50 with Hs-578T was > 100 µM (inactive); in the assay with A549 it was 91.4 µM (inactive); with LOX IMVI, > 100 µM (inactive); with SK-MEL-5, 24.2 µM (inactive); in the assay with CAKI-1, > 100 µM (inactive); with EKVX, 55.8 µM (inactive). The GI50 with SF-268 was > 100 µM (inactive); in the assay with 786-0 it was > 100 µM (inactive); in the assay with SF-539 it was > 100 µM (inactive); in the assay on OVCAR-5, > 100 µM (inactive); in the assay on SNB-19, > 100 µM (inactive); in the assay on NCI-H522 it was 64.1 µM (inactive). The GI50 in the assay on OVCAR-3 was > 100 µM (inactive).

Turning to `CC(C)C(Sc1nc(N)nc2nc[nH]c12)C(=O)O` (stereo not drawn), the GI50 with OVCAR-4, in the assay on RPMI-8226, in the assay with BT-549, in the assay with MDA-MB-435, with SF-295 and in the assay on CCRF-CEM was > 100 µM (inactive) throughout. In addition, the GI50 with Hs-578T, in the assay on A549, with LOX IMVI, in the assay with SK-MEL-5, with CAKI-1 and in the assay with EKVX was > 100 µM (inactive) each time. In addition, the GI50 in the assay on SF-268, with COLO 205, in the assay on 786-0, with OVCAR-5, with SNB-19 and in the assay on NCI-H522 was > 100 µM (inactive) each time. Moreover, the GI50 with OVCAR-3 was > 100 µM (inactive).

For the compound `CC[C@H]1C=CCC[C@@]2(C[C@@H]3CC[C@H]4[C@H](C(=O)OCCCCCCCCCCCCCCCC(=O)N(CCCN)C[C@@H](O)CCN)[C@]5(CCC[C@@H](C)O5)NC(=[N+]34)N2)O1`, the concentration for 50% growth inhibition (GI50) was 0.863 µM (active) with OVCAR-4; 0.177 µM (active) in the assay with RPMI-8226; 1.71 µM (inactive) in the assay on BT-549; 0.338 µM (active) with MDA-MB-435; 1.63 µM (inactive) in the assay with SF-295; 1.59 µM (inactive) with Hs-578T. Further, the GI50 with A549 was 0.48 µM (active); in the assay on LOX IMVI it was 0.36 µM (active); in the assay with SK-MEL-5 it was 0.268 µM (active); in the assay on CAKI-1 it was 0.532 µM (active); with EKVX, 1.08 µM (active); in the assay with SF-268 it was 1.11 µM (active). The GI50 in the assay on COLO 205 was 0.342 µM (active); in the assay on 786-0, 0.543 µM (active); with SF-539, 1.49 µM (inactive); with OVCAR-5, 0.429 µM (active); with SNB-19 it was 1.21 µM (inactive); in the assay with NCI-H522, 1.04 µM (active). Also, in the assay with OVCAR-3, the GI50 was 1.41 µM (inactive).

Turning to `COc1cccc(/C=C2\CCCc3ccccc3C2=O)c1`, the GI50 was 13.5 µM (inactive) with OVCAR-4; 6.35 µM (inactive) with RPMI-8226; 16.2 µM (inactive) with BT-549; 10.1 µM (inactive) in the assay with MDA-MB-435; 14.9 µM (inactive) with SF-295; 12.3 µM (inactive) with CCRF-CEM. Besides, the GI50 is 17.9 µM (inactive) in the assay on Hs-578T; 23 µM (inactive) in the assay on A549; 17.4 µM (inactive) in the assay on LOX IMVI; 23.4 µM (inactive) with CAKI-1; 21.3 µM (inactive) in the assay with EKVX; 10 µM (inactive) in the assay on SF-268. Further, the GI50 with COLO 205 was 17.8 µM (inactive); in the assay on 786-0 it was 13.1 µM (inactive); in the assay on SF-539, 17.1 µM (inactive); in the assay on OVCAR-5, 15.3 µM (inactive); in the assay with SNB-19, 11.7 µM (inactive); in the assay with NCI-H522, 15 µM (inactive). Also, in the assay with OVCAR-3, the GI50 was 17.1 µM (inactive).

In the case of `O=C(CN1C(=O)c2ccccc2C1=O)NC1(C(=O)O)CCCC1`, the GI50 with OVCAR-4, in the assay on RPMI-8226, in the assay on BT-549, with MDA-MB-435, in the assay with SF-295 and in the assay with CCRF-CEM was > 100 µM (inactive) throughout. Also, the GI50 in the assay on Hs-578T, with A549, with LOX IMVI, with SK-MEL-5, in the assay on CAKI-1 and with EKVX was > 100 µM (inactive) in each case. Further, the GI50 in the assay with SF-268, in the assay with COLO 205, with 786-0, with OVCAR-5, in the assay with SNB-19 and with NCI-H522 was > 100 µM (inactive) each time. The GI50 in the assay with OVCAR-3 is > 100 µM (inactive).

These data come from ChEMBL document CHEMBL1201862, “PubChem BioAssay data set” (2004).
